Residues, ends and D or L forms follow the SMILES beside them.
Test system: E. coli TOP10
Test: microarray transcription profile of E. coli TOP10 expressing Novispirin G10 (pDRS5-novispirin, arabinose induced) relative to control strain pBAD gIII A
Format: cell-based, Escherichia coli
Protocol: In order to obtain a transcriptional profile of E. coli expressing Novispirin G10, 2×10 mL sterile LB media (10 g/L Bactotryptone, 5 g/L Yeast extract, and 10 g/L NaCl) containing 100 mg/L ampicillin was inoculated with E. coli TOP10 harbouring pDRS5-novispirin and pBAD gIII A, respectively. These cultures were grown overnight at 37° C. at 180 rpm. The overnight cultures were diluted 1/100 into fresh sterile RM media (2% Casamino Acids, 0.2% glycerol, 1 mM MgCl2, 0.1 mM thiamine, 6 g/L Na2HPO4, 3 g/L KH2PO4.2H2O, 0.5 g/L NaCl, 0.1 g/L NH4Cl at pH 7.4) supplemented with 100 mg/L ampicillin and 0.1% arabinose. 100 mL of each culture was grown at 37° C., 240 rpm for 4.5 hours before being harvested by poured into centrifugation tubes containing 10 mL pre-frozen milliQ water and immediate centrifugation at 4200 g for 15 minutes at 4° C. Immediately hereafter, the supernatant was decanted and the cell […] was frozen at −20° C. for storage until RNA preparation was initiated.
Total RNA was isolated from the two E. coli (expressing either Novispirin G10 or a control peptide) cultures by use of the High Pure RNA Isolation kit (Roche, cat #1 828 665) according to the manufacturers instructions. Residual DNA was removed on-column with RNase-free DNase. Labelled samples were prepared from 30 μg of total bacterial RNA. Fluorescent first strand cDNA was prepared by random primed reverse transcription (Superscript II; Life Technologies) by use of random hexamers for cDNA synthesis. 2 μl (20 μg) of random primer was mixed with 15 μl (30 μg) of total RNA, incubated for 5 min at 70° C., and cooled on ice. To each sample was added 5× first strand buffer (6 μl), 0.1 M DTT (3 μl), dNTP mix (5 mM dATP, dGTP and dTTP and 2 mM dCTP) (1 μl), RNaseOut (1 μl), Superscript II reverse transcriptase (2 μl) and Cy-dCTP (3 μl). Reverse transcription was carried out at 42° C. for 1 hr. RNA was removed by addition of 10 μl NaOH (1 M) and incubation at 65° C. for 10 min. The samples were neutralised by addition of 10 μl HCl (1 M). Cy3 and Cy5 cDNA samples were mixed and immediately purified with a GFX PCR DNA and Gel Band Purification Kit (Amersham Biosciences).
Slides were pre-hybridised at 42° C. for 45 min in a solution containing 4×SSC+0.5% SDS+1% BSA and dried by centrifugation. Hybridizations were in a volume of 25 μl under a supported cover slip at 42° C. for 16-18 h at high humidity. The hybridisation mixture was labelled cDNA in a formamide-based hybridisation buffer (MWG—supplied with the pan-arrays). Cover slip and supports were gently removed (2×SSC in a wash tray) and arrays were washed by immersion into 2×SSC+0.1% SDS for 5 min, 1×SSC+0.1% SDS for 5 min, 0.5×SSC for 5 min and 1× millipore water for 10 sec and dried by centrifugation. Slides were scanned on a GMS 418 scanner to detect Cy3 and Cy5 fluorescence. Data analysis was carried out using ImaGene 5.0 and GeneSight 3.5 from BioDiscovery (www.biodiscovery.com). Two biological replicate experiments with four replicate hybridisations in each experiment were carried out for generation of data.
Pan E. coli K12 Arrays from MWG Biotech were used in this study (lot No.: 020206). The 4239 E. coli K12 specific oligonucleotide probes present on this glass-based DNA chip represent the complete Escherichia coli (K12) genome
Gene expression data was analyzed using the GeneSight 4.1.5 software from BioDiscovery. Data was prepared using local background correction, removal of flagged spots (contaminated background or signal), floor value raising data to a minimum value of 20, calculation of ratio, log(2) transformation of ratios, print-tip lowess normalization, and finally combination of replicate spot.

CC[C@H](C)[C@H](NC(=O)CNC(=O)[C@H](CCCCN)NC(=O)[C@H](CCCNC(=N)N)NC(=O)[C@@H](NC(=O)[C@@H](NC(=O)[C@H](CCCNC(=N)N)NC(=O)[C@H](CCCNC(=N)N)NC(=O)[C@H](CC(C)C)NC(=O)[C@H](CC(N)=O)NC(=O)[C@@H](N)CCCCN)[C@@H](C)CC)[C@@H](C)CC)C(=O)N[C@@H](Cc1c[nH]cn1)C(=O)N[C@H](C(=O)N[C@H](C(=O)N[C@@H](CCCCN)C(=O)N[C@@H](CCCCN)C(=O)N[C@@H](Cc1ccc(O)cc1)C(=O)NCC(=O)O)[C@@H](C)CC)[C@@H](C)CC [Novispirin G10] (H-KNLRRIIRKGIHIIKKYG-OH; N-terminus assumed)
ratio, gene abrB: −6.2 | ratio, gene ackA: −4.8 | ratio, gene adhP: 3.8 | ratio, gene aer: 14.3 | ratio, gene agaZ: −2.9 | ratio, gene ais: 14.1 | ratio, gene amyA: 5.8 | ratio, gene ansB: −3.8 | ratio, gene appB: 47.2 | ratio, gene appC: 3.5 | ratio, gene argA: 3.8 | ratio, gene aspA: −5.7 | ratio, gene asr: 19.2 | ratio, gene atpC: 3.1 | ratio, gene b0919: −2.8 | ratio, gene b1044: −3.0 | ratio, gene b1354: 3.0 | ratio, gene b1355: 5.0 | ratio, gene b1362: −14.9 | ratio, gene b1394: 2.8 | ratio, gene b1408: 3.3 | ratio, gene b1422: 3.0 | ratio, gene b1450: 4.8 | ratio, gene b1454: 9.7 | ratio, gene b1518: −3.8 | ratio, gene b1520: 3.2 | ratio, gene b1582: 6.8 | ratio, gene b1583: 4.3 | ratio, gene b1593: −5.0 | ratio, gene b1605: 3.0 | ratio, gene b1627: 3.5 | ratio, gene b1643: 4.5 | ratio, gene b1691: 3.7 | ratio, gene b1721: 98.3 | ratio, gene b1724: 9.1 | ratio, gene b1825: 8.7 | ratio, gene b1826: 4.6 | ratio, gene b1836: 6.9 | ratio, gene b1837: 5.3 | ratio, gene b1903: −3.1 | ratio, gene b1953: 3.8 | ratio, gene b1995: −3.1 | ratio, gene b2097: 8.1 | ratio, gene b2253: 8.4 | ratio, gene b2254: 5.5 | ratio, gene b2256: 4.0 | ratio, gene b2324: −4.0 | ratio, gene b2372: 3.8 | ratio, gene b2383: −4.1 | ratio, gene b2809: 3.4 | ratio, gene b2833: 5.1 | ratio, gene b2879: 2.9 | ratio, gene b3023: 3.9 | ratio, gene b3100: 9.9 | ratio, gene blc: 4.9 | ratio, gene bolA: 13.0 | ratio, gene btuE: 3.4 | ratio, gene btuR: −2.8 | ratio, gene celF: 4.1 | ratio, gene cheR: 6.8 | ratio, gene clpB: −3.6 | ratio, gene codA: 3.4 | ratio, gene crcA: 11.7 | ratio, gene csgF: 2.8 | ratio, gene dacC: 3.6 | ratio, gene dcuC: −6.2 | ratio, gene deoA: 3.8 | ratio, gene deoB: 3.0 | ratio, gene deoR: 2.9 | ratio, gene dgt: −2.7 | ratio, gene dksA: 4.1 | ratio, gene dnaJ: −3.0 | ratio, gene dnaK: −2.8 | ratio, gene dps: 4.4 | ratio, gene ebgR: −3.0 | ratio, gene ecpD: −3.7 | ratio, gene elaB: 9.7 | ratio, gene entF: −3.2 | ratio, gene evgA: −2.9 | ratio, gene fadL: −2.6 | ratio, gene fdnG: −3.3 | ratio, gene fecE: −2.7 | ratio, gene fecR: −3.6 | ratio, gene feoA: −6.1 | ratio, gene feoB: −5.2 | ratio, gene fepC: −2.7 | ratio, gene fhuE: −2.7 | ratio, gene fimC: 3.8 | ratio, gene flgG: −2.6 | ratio, gene flhB: −2.8 | ratio, gene flhD: −2.7 | ratio, gene fliD: 5.4 | ratio, gene fliJ: −3.1 | ratio, gene fliQ: 4.5 | ratio, gene folA: 3.2 | ratio, gene frdC: −5.0 | ratio, gene frwB-r: 4.0 | ratio, gene gabP: 8.2 | ratio, gene gabT: 6.5 | ratio, gene gapC_1: 3.3 | ratio, gene gatA: −3.0 | ratio, gene gatC: −2.7 | ratio, gene gatD: −3.2 | ratio, gene gatY: −6.2 | ratio, gene gatz: −6.8 | ratio, gene gcvH: −3.9
